Test results: ChEMBL document CHEMBL3856221, “Structural modifications of the serotonin 5-HT7 receptor agonist N-(4-cyanophenylmethyl)-4-(2-biphenyl)-1-piperazinehexanamide (LP-211) to improve in vitro microsomal stability: A case study” (Eur J Med Chem, 2016)
Active and inactive are the calls of the source. No cut-off for these calls is given here.

Key:
[1] = target: 5-hydroxytryptamine receptor 7 (Homo sapiens, UniProt P34969); assay: Displacement of [3H]-5-CT from human 5-HT7b receptor expressed in HEK293 cell membranes after 1 hr by microbeta counting analysis
[2] = target: T1, 5-hydroxytryptamine receptor 1A (Homo sapiens, UniProt P08908); assay: Displacement of [3H]-8-OH-DPAT from human 5-HT1A receptor expressed in HEK293 cell membranes after 1 hr by microbeta counting analysis
T1 sequence (P08908 whole entry): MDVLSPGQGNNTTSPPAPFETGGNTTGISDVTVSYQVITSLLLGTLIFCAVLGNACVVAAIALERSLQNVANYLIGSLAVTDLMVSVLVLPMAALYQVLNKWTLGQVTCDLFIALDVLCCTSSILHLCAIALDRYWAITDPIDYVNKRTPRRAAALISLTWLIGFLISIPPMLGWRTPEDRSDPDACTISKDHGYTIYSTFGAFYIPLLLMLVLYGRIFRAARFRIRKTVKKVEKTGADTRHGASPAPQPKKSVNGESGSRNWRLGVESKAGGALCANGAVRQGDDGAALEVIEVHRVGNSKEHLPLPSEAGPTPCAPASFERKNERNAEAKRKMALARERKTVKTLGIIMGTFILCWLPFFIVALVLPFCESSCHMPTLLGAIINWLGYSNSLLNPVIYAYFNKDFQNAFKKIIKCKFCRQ

[3] = target: T2, 5-hydroxytryptamine receptor 6 (Homo sapiens, UniProt P50406); assay: Displacement of [3H]-LSD from human 5-HT6 receptor expressed in HEK293 cell membranes after 1 hr by microbeta counting analysis
D(2) dopamine receptor [4] = target: T3, D(2) dopamine receptor (Homo sapiens, UniProt P14416); assay: Displacement of [3H]raclopride from human dopamine D2L receptor expressed in HEK293 cell membranes after 1 hr by microbeta counting analysis; type: cell-based
[5] = Displacement of [3H]-prazosin from adrenergic alpha 1 receptor in pig brain cortical membranes after 50 mins by microbeta counting analysis; type: ADME, cell membranes, Sus scrofa
[6] = Stability in mouse liver microsomes assessed as oxidative metabolism by measuring drug recovery at 10 uM preincubated for 10 mins followed by NADPH addition measured after 30 mins by liquid chromatographic method; type: ADME; details: for remaining at 0.5 h, 10 µM: liver microsomes, read-out: Drug recovery
[7] = Half life in mouse liver microsomes in presence of NADPH by liquid chromatographic method; type: ADME; details: for half-life: liver microsomes
[8] = Retention factor, logKw of compound in MeOH/0.01 M phosphate buffer at pH 7.4 by RP-HPLC method; type: physicochemical
[9] = Cmax in CD-1 mouse brain at 10 mg/kg, ip administered as single dose after 30 mins by LC/MS analysis; type: ADME, organism-based; parameters: dose 10 mg/kg, route intraperitoneal
[10] = Elimination half life in CD-1 mouse plasma at 10 mg/kg, ip administered as single dose by LC/MS analysis; type: ADME, organism-based; details: read-out: beta t1/2 (converted)
[11] = target: 5-hydroxytryptamine receptor 7 (Mus musculus) (UniProt P32304); assay: Agonist activity at 5-HT7 receptor in embryonic day 15 C57BL/6 mouse striatum assessed as increase in neurite length at 20 nM after 30 mins by DAPI staining based microscopy relative to control
[12] = target: 5-hydroxytryptamine receptor 7 (Mus musculus) (UniProt P32304); assay: Agonist activity at 5-HT7 receptor in embryonic day 15 C57BL/6 mouse striatum assessed as increase in neurite length at 20 nM up to 4 hrs by DAPI staining based microscopy relative to control
[13] = target: 5-hydroxytryptamine receptor 7 (Mus musculus) (UniProt P32304); assay: Agonist activity at 5-HT7 receptor in embryonic day 15 C57BL/6 mouse cortex assessed as increase in neurite length at 20 nM after 30 mins by DAPI staining based microscopy relative to control; type: tissue-based
[14] = target: 5-hydroxytryptamine receptor 7 (Mus musculus) (UniProt P32304); assay: Agonist activity at 5-HT7 receptor in embryonic day 15 C57BL/6 mouse cortex assessed as increase in neurite length at 20 nM up to 24 hrs by DAPI staining based microscopy; type: tissue-based
[15] = Cmax in CD-1 mouse plasma at 10 mg/kg, ip administered as single dose after 30 mins by LC/MS analysis; type: ADME, organism-based; parameters: dose 10 mg/kg, route intraperitoneal
[16] = Drug uptake in CD-1 mouse plasma at 10 mg/kg, ip administered as single dose measured up to 4 hrs by LC/MS analysis; type: ADME, organism-based; details: in vivo
[17] = Elimination half life in CD-1 mouse brain at 10 mg/kg, ip administered as single dose by LC/MS analysis; type: ADME, organism-based; details: read-out: beta t1/2 (converted)
[18] = Ratio of drug uptake in CD-1 mouse brain to plasma at 10 mg/kg, ip administered as single dose by LC/MS analysis; type: ADME, organism-based; details: read-out: BPR
[19] = Half life in ip dosed mouse; details: in vivo
[20] = target: T2, 5-hydroxytryptamine receptor 6; assay: Displacement of [3H]-LSD from human 5-HT6 receptor after […] by cell based assay
D(2) dopamine receptor [21] = target: T3, D(2) dopamine receptor; assay: Binding affinity to dopamine D2 receptor (unknown origin)

T2 sequence (P50406 whole entry): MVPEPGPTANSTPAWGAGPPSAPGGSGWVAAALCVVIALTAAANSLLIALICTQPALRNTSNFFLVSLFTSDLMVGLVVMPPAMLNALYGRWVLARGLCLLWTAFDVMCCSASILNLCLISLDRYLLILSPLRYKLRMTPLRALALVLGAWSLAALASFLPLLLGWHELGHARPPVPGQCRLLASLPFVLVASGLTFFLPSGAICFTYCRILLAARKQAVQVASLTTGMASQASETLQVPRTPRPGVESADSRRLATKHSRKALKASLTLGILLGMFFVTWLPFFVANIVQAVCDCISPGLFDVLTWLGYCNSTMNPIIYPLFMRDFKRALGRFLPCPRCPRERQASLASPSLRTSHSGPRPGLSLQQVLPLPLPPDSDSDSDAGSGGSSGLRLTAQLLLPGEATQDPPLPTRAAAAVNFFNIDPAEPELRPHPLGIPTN
5-hydroxytryptamine receptor 7, sequence (P34969 whole entry): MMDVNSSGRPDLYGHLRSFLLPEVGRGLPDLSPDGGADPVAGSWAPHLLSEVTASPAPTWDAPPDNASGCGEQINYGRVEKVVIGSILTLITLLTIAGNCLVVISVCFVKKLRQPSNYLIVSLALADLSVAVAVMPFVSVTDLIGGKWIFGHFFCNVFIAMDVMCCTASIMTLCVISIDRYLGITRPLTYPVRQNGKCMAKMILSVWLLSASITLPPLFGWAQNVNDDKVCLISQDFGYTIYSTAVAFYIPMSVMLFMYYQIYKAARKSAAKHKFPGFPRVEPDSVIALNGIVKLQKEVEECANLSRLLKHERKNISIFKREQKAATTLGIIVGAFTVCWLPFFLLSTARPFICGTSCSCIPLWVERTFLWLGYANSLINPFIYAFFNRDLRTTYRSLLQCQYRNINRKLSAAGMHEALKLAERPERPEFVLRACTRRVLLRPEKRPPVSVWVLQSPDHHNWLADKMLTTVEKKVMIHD
T3 sequence (P14416 whole entry): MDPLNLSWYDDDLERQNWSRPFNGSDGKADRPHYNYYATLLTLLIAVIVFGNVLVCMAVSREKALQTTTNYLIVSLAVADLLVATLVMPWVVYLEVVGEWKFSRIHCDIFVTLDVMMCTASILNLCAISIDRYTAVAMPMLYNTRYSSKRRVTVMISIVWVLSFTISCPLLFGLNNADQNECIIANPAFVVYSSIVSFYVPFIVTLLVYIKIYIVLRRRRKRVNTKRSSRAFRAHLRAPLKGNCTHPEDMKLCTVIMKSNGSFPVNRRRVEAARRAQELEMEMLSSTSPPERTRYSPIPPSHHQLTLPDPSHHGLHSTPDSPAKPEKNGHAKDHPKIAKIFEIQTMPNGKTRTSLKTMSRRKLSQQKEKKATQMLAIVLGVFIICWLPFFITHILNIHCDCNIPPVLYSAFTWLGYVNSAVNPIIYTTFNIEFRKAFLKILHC
5-hydroxytryptamine receptor 7 (Mus musculus), sequence (P32304 whole entry): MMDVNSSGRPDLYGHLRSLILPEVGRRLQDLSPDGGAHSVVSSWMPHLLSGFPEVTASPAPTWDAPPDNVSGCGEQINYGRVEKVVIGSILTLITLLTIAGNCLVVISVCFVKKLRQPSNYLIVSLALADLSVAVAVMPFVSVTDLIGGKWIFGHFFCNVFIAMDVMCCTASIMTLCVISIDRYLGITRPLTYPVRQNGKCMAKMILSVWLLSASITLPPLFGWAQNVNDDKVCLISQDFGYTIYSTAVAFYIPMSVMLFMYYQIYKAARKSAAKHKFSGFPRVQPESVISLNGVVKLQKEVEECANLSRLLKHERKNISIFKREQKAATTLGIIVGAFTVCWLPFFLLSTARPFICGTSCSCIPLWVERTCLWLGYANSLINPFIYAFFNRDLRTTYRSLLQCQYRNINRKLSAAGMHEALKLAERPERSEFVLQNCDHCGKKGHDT

Structure (SMILES) | Ki [1] | Ki [2] | Ki [3] | Ki (D(2) dopamine receptor [4]) | Ki [5] | remaining at 0.5 h, 10 µM [6] | half-life [7] | logKw [8] | further results
COc1ccc(-c2ccccc2N2CCN(CCCCCC(=O)N[C@@H](C)c3ccc(C#N)cc3)CC2)cc1 | 19 nM | 147 nM | 700 nM | 308 nM | 12.9 nM | 24% | 29 min | 0.59 | 
COc1ccc(-c2cc(F)ccc2N2CCN(CCCCCC(=O)NCc3ccc(C#N)cc3)CC2)cc1 | 25.5 nM | 771 nM | 614 nM | 522 nM | 6.6 nM |  |  | 0.52 | Cmax [9]: 515 ng/mL; half-life [10]: 64.2 min; Drug recovery ([6]; microsomes, 0.5 h, 10 µM): 27%; t1/2 ([7]; microsomes): 45 min; Activity [11]: 124%; Activity [12]: 126%; Activity [13]: 130%; Activity [14]: Active; Cmax [15]: 1170 ng/mL; Drug uptake [16]: Active; half-life [17]: 61.2 min; Kp [18]: 0.5
O=C1CCc2ccc(OCCCCN3CCN(c4cccc(Cl)c4Cl)CC3)cc2N1 [ARIPIPRAZOLE] |  |  |  |  |  |  |  |  | half-life [19]: 264 min
N#Cc1ccc(CNC(=O)CCCCCN2CCN(c3ccccc3-c3ccccc3)CC2)cc1 |  |  |  |  |  | 20% |  | 0.58 | Ki [20]: 1570 nM; Ki (D(2) dopamine receptor [21]): 242 nM
N#Cc1ccc(CNC(=O)CCCCCN2CCN(c3ccc(F)cc3-c3ccc(C#N)cc3)CC2)cc1 | 27 nM | 2870 nM | 927 nM | 1380 nM | 3.2 nM | 22% | 26 min | 0.23 | 
COc1ccc(-c2ccccc2N2CCN(CCCCCC(=O)NCc3ccc(OCCN4CCOCC4)cc3)CC2)cc1 | 25 nM | 163 nM | 1710 nM | 375 nM | 26 nM | 15% |  | 0.57 | 

The next lines start with results.

Ki [1] | Ki [2] | Ki [3] | Ki (D(2) dopamine receptor [4]) | Ki [5] | remaining at 0.5 h, 10 µM [6] | half-life [7] | logKw [8] | Structure (SMILES) | further results
8 nM | 126 nM | 745 nM | 293 nM | 30 nM | 25% | 18 min | 0.54 | COc1ccc(-c2ccccc2N2CCN(CCCCCC(=O)NCc3ccc(C#N)cc3)CC2)cc1 | 
12 nM | 109 nM | 843 nM | 243 nM | 17.8 nM | 26% | 23 min | 0.54 | COc1ccc(-c2ccccc2N2CCN(CCCCCC(=O)N[C@H](C)c3ccc(C#N)cc3)CC2)cc1 | 
